Source: patent publication US20240124442A1, “TRICYCLIC-AMIDO-BICYCLIC PRMT5 INHIBITORS” (AMGEN INC., priority 2021, published 2024)

How the values were obtained:
HCT116 MTAP null cells = experiment: HCT116 MTAP null cell line proliferation / cell viability (CellTiter-Glo, 6 days); assay type: cell-based; settings: 144 h; HCT116 MTAP null cells, 6 days treatment, CellTiter-Glo cell viability; read-out: HCT-116 MTAP null IC50
How it was run: (§1)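 WT vs MTAP-null HCT116, 6 d drug, CTG readout. 1:3 × 8–9 pts (top 1/10 μM) or 1:2 × 22 pts (top 10/50 μM). IC50 by 4PL or Hill −1 fit.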

HCT116 WT cells = experiment: HCT116 WT (parent) cell line proliferation / cell viability (CellTiter-Glo, 6 days); assay type: cell-based; settings: Homo sapiens, HCT-116, 144 h, 6 days treatment
How it was run: as §1

Structure (SMILES): Cc1ccc2c(n1)COC[C@H]2N(C)C(=O)c1ccc2nc(N)c3cnn(C)c3c2c1 [Example 679, (S)-4-amino-N,1-dimethyl-N-(2-methyl-5,8-dihydro-6H-pyrano[3,4-b]pyridin-5-yl)-1H-pyrazolo[4,3-c]quinoline-8-carboxamide]
- IC50 (HCT116 MTAP null cells): 26 nM
- IC50 (HCT116 WT cells): 2270 nM

Structure (SMILES): Cc1ccc2c(c1)OC[C@H]2N(C)C(=O)c1ccc2nc(N)c3cnn(C)c3c2c1 [Example 683, 4-amino-N,1-dimethyl-N-((3S)-6-methyl-2,3-dihydro-1-benzofuran-3-yl)-1H-pyrazolo[4,3-c]quinoline-8-carboxamide]
- IC50 (HCT116 MTAP null cells): 38 nM
- IC50 (HCT116 WT cells): 3580 nM

Structure (SMILES): CN(C(=O)c1ccc2nc(N)c3cnn(C)c3c2c1)[C@@H]1COCc2nc(C3CC3)ccc21 [Example 684, 4-amino-N-((5S)-2-cyclopropyl-5,8-dihydro-6H-pyrano[3,4-b]pyridin-5-yl)-N,1-dimethyl-1H-pyrazolo[4,3-c]quinoline-8-carboxamide]
- IC50 (HCT116 MTAP null cells): 6 nM
- IC50 (HCT116 WT cells): 227 nM

Structure (SMILES): COC(=O)c1ccc2c(c1)OC[C@H]2N(C)C(=O)c1ccc2nc(N)c3cnn(C)c3c2c1 [Example 685, methyl (S)-3-(4-amino-N,1-dimethyl-1H-pyrazolo[4,3-c]quinoline-8-carboxamido)-2,3-dihydrobenzofuran-6-carboxylate]
- IC50 (HCT116 MTAP null cells): 22 nM
- IC50 (HCT116 WT cells): 1520 nM

Structure (SMILES): CN(C(=O)c1ccc2nc(N)c3cnn(C)c3c2c1)[C@@H]1COc2cc(CO)ccc21 [Example 686, (S)-4-amino-N-(6-(hydroxymethyl)-2,3-dihydrobenzofuran-3-yl)-N,1-dimethyl-1H-pyrazolo[4,3-c]quinoline-8-carboxamide]
- IC50 (HCT116 MTAP null cells): 129 nM
- IC50 (HCT116 WT cells): 11400 nM

Structure (SMILES): CN(C(=O)c1ccc2nc(N)c3cnn(C)c3c2c1)[C@@H]1COc2cc(Cl)ccc21 [Example 687, (S)-4-amino-N-(6-chloro-2,3-dihydrobenzofuran-3-yl)-N,1-dimethyl-1H-pyrazolo[4,3-c]quinoline-8-carboxamide 2,2,2-trifluoroacetate]
- IC50 (HCT116 MTAP null cells): 12 nM
- IC50 (HCT116 WT cells): 846 nM

Structure (SMILES): CN(C(=O)c1ccc2nc(N)c3cnn(C)c3c2c1)[C@@H]1COc2cc(C3CCOCC3)ccc21 [Example 688, (S)-4-amino-N,1-dimethyl-N-(6-(tetrahydro-2H-pyran-4-yl)-2,3-dihydrobenzofuran-3-yl)-1H-pyrazolo[4,3-c]quinoline-8-carboxamide]
- IC50 (HCT116 MTAP null cells): 5 nM
- IC50 (HCT116 WT cells): 431 nM

Structure (SMILES): CC(=O)N1CC=C(c2ccc3c(c2)OCC3N(C)C(=O)c2ccc3nc(N)c4c(c3c2)COC4)CC1 (stereo not shown) [Example 689, N-(6-(1-acetyl-1,2,3,6-tetrahydropyridin-4-yl)-2,3-dihydrobenzofuran-3-yl)-4-amino-N-methyl-1,3-dihydrofuro[3,4-c]quinoline-8-carboxamide]
- IC50 (HCT116 MTAP null cells): 101 nM
- IC50 (HCT116 WT cells): 4540 nM
